From US20220057377A1, “ANALYTICAL METHOD FOR DETERMINATION OF IN VITRO DRUG RELEASE PROFILE FROM MICRONEEDLE PATCHES” (ZOSANO PHARMA CORPORATION, priority 2020, published 2022)
≈ marks a conversion by molar mass, not a printed value. Where “and” joins values, the source holds several entries; their conditions need not be identical. Identical values can stand only once. Like-named read-outs stand apart in the source and are kept apart here.

Assays:
[1] = cited from earlier work
[2] = Sample solution stability at 2-8° C.; format: physicochemical
Procedure: Sample solutions containing the released drug after the drug release tests were stored at 2-8° C. for a few days and injected to check the stability of the solution. Six sample solutions from each time points were aliquoted from release test tube and stored in refrigerator at 2-8 C for 15 days before being analyzed by HPLC. […] For the solution concentration is close to 1×-5× of the quantitation limit, 85%-115% recovery from fresh sample is considered reasonable.

[3] = Solubility of zolmitriptan at room temperature in PBS, water and IPA (in-house); format: physicochemical
Procedure: The solubility of zolmitriptan at room temperature in phosphate buffer saline (PBS), water, and isopropyl alcohol (IPA) were evaluated in-house. Zolmitriptan API was added into 200 mL of water, 10 mM phosphate buffer saline (PBS) at pH 7.4, and IPA until saturated. The solutions were then mixed at room temperature by stir bar overnight. Saturated solutions at 2 and 24 hours were filtered and analyzed for drug concentration by HPLC.

[4] = Stability of zolmitriptan in 10 mM PBS release media; format: physicochemical
Procedure: In order for the drug to have fully released from the patches, a complete release time of 22 hours was noted. Therefore, stability of zolmitriptan in the release medium was evaluated for up to 24 hours.

[5] = Sink condition; format: physicochemical
Procedure: The sink condition is defined as having a volume of medium at least three times that required to form a saturated solution of drug substance. […] The microneedle patch is coated with a specific amount (mg) of the bioactive agent and is intended to deliver a certain percentage of the drug. Based on the data from the solubility study described above, the sink condition can be met by various media.
The M207 patch is coated with 1.9 mg of zolmitriptan and is intended to deliver 100% of the drug. The mean drug content specification is 90.0%-110.0% of 1.9 mg. Based on the data from the solubility study, the sink condition was met for both the water and 10 mM PBS medium when applying volume of release medium of >6 mL. This is greater than three times the saturated solution in PBS (˜1.6 mL) for 1.9 mg of zolmitriptan released from the M207 patch.

- Drug Amount ([2]; T = 15 days at 2-8 C, 1 hour release time point, Average of 6): 0.22 mg
- Drug Amount ([2]; T = 15 days at 2-8 C, 2 hours release time point, Average of 6): 0.33 mg
- Drug Amount ([2]; T = 15 days at 2-8 C, 3 hours release time point, Average of 6): 0.29 mg
- Drug Amount ([2]; T = 15 days at 2-8 C, 5 hours release time point, Average of 6): 0.42 mg
- Drug Amount ([2]; T = 15 days at 2-8 C, 12 hours release time point, Average of 6): 0.63 mg
- Drug Amount ([2]; T = 15 days at 2-8 C, 22 hours release time point, Average of 6): 0.18 mg
- Drug Amount ([2]; Time Zero, 1 hour release time point, Average of 6): 0.21 mg
- Drug Amount ([2]; Time Zero, 2 hours release time point, Average of 6): 0.33 mg
- Drug Amount ([2]; Time Zero, 3 hours release time point, Average of 6): 0.28 mg
- Drug Amount ([2]; Time Zero, 5 hours release time point, Average of 6): 0.41 mg
- Drug Amount ([2]; Time Zero, 12 hours release time point, Average of 6): 0.63 mg
- Drug Amount ([2]; Time Zero, 22 hours release time point, Average of 6): 0.17 mg
- Drug Amount ([2]; Time Zero, sample solution of 3 hours release time point, individual sample): 0.28 mg (3×) and 0.3 mg and 0.26 mg (2×)
- solubility ([3]; 10 mM PBS, pH 7.4, aqueous buffer, thermodynamic from solid): ~1200 µg/mL (≈ 4.18 mM)
- Zolmitriptan Concentration (saturated solution) ([3]; 10 mM PBS, pH 7.4, mixed 24 hours, room temperature): 1213.19 µg/mL
- solubility thermodynamic at 2 h ([3]; 10 mM phosphate buffer saline, aqueous buffer, thermodynamic from solid, 10 mM PBS, pH 7.4, mixed 2 hours, room temperature, read-out: Zolmitriptan Concentration (saturated solution)): 1240 µg/mL (≈ 4.3 mM)
- Zolmitriptan Concentration (saturated solution) ([3]; 100% IPA, mixed 2 hours, room temperature): 1691.82 µg/mL
- Zolmitriptan Concentration (saturated solution) ([3]; HPLC grade Water, mixed 2 hours, room temperature): 944.05 µg/mL
- Zolmitriptan Concentration (saturated solution) ([3]; HPLC grade Water, mixed 24 hours, room temperature): 1061.33 µg/mL
- solubility ([3]; isopropyl alcohol (IPA), organic solvent or mixture, thermodynamic from solid): ~1700 µg/mL (≈ 5.92 mM)
- solubility ([3]; water, thermodynamic from solid): ~1000 µg/mL (≈ 3.48 mM)
- After 24 hours at 32° C. Concentration ([4]; T0 Concentration 0.49 μg/mL): 0.50 µg/mL
- After 24 hours at 32° C. Concentration ([4]; T0 Concentration 5.00 μg/mL): 5.02 µg/mL
- After 24 hours at 32° C. Concentration ([4]; T0 Concentration 335.94 μg/mL): 335.94 µg/mL
- stability in release media ([4]; up to 24 hours at 32° C.): remained stable
- volume of saturated solution in PBS ([5]; for 1.9 mg of zolmitriptan released from the M207 patch): ~1.6 mL
- volume of release medium at which sink condition was met ([5]; water and 10 mM PBS medium, 1.9 mg zolmitriptan): > 6 mL
Compound: CN(C)CCc1c[nH]c2ccc(C[C@H]3COC(=O)N3)cc12 [zolmitriptan]
- volume of solution in which each gram of solute dissolved ([1]; aqueous solution, pH range 4-14): ~10,000 mL
- Approximate volume of solvent in mL per gram of solute ([1]; pH 1): From 10 to 30 mL per gram of solute
- Descriptive Term (solubility) ([1]; pH 1): Soluble
- Approximate volume of solvent in mL per gram of solute ([1]; pH 2): From 100 to 500 mL per gram of solute
- Descriptive Term (solubility) ([1]; pH 2): Slightly soluble
- Approximate volume of solvent in mL per gram of solute ([1]; pH 3): More than 10,000 mL per gram of solute
- Descriptive Term (solubility) ([1]; pH 3): Practically insoluble
- Approximate volume of solvent in mL per gram of solute ([1]; pH 4): More than 10,000 mL per gram of solute
- Descriptive Term (solubility) ([1]; pH 4): Practically insoluble
- Approximate volume of solvent in mL per gram of solute ([1]; pH 7): More than 10,000 mL per gram of solute
- Descriptive Term (solubility) ([1]; pH 7): Practically insoluble
- Approximate volume of solvent in mL per gram of solute ([1]; pH 14): More than 10,000 mL per gram of solute
- Descriptive Term (solubility) ([1]; pH 14): Practically insoluble
- solubility in aqueous solution (descriptive) ([1]; pH range 4-14): slightly soluble to very slightly soluble
- Drug Amount ([2]; T = 15 days at 2-8 C, 1 hour release time point, individual sample): 0.22 mg and 0.20 mg (2×) and 0.25 mg and 0.23 mg and 0.21 mg
- Drug Amount ([2]; T = 15 days at 2-8 C, 2 hours release time point, individual sample): 0.33 mg (3×) and 0.35 mg and 0.32 mg (2×)
- Drug Amount ([2]; T = 15 days at 2-8 C, 3 hours release time point, individual sample): 0.29 mg (2×) and 0.31 mg and 0.30 mg and 0.26 mg (2×)
- Drug Amount ([2]; T = 15 days at 2-8 C, 5 hours release time point, individual sample): 0.41 mg and 0.48 mg and 0.44 mg and 0.36 mg and 0.42 mg and 0.38 mg
- Drug Amount ([2]; T = 15 days at 2-8 C, 12 hours release time point, individual sample): 0.60 mg and 0.83 mg and 0.76 mg and 0.46 mg and 0.64 mg and 0.51 mg
- Drug Amount ([2]; T = 15 days at 2-8 C, 22 hours release time point, individual sample): 0.15 mg and 0.28 mg and 0.25 mg and 0.10 mg and 0.17 mg and 0.12 mg
- Drug Amount ([2]; Time Zero, sample solution of 1 hour release time point, individual sample): 0.21 mg and 0.2 mg (2×) and 0.19 mg and 0.24 mg and 0.22 mg
- Drug Amount ([2]; Time Zero, sample solution of 2 hours release time point, individual sample): 0.33 mg (2×) and 0.34 mg and 0.32 mg (2×) and 0.31 mg
- Drug Amount ([2]; Time Zero, sample solution of 5 hours release time point, individual sample): 0.41 mg and 0.48 mg and 0.43 mg and 0.36 mg and 0.42 mg and 0.37 mg
- Drug Amount ([2]; Time Zero, sample solution of 12 hours release time point, individual sample): 0.59 mg and 0.85 mg and 0.75 mg and 0.45 mg and 0.63 mg and 0.51 mg
- Drug Amount ([2]; Time Zero, sample solution of 22 hours release time point, individual sample): 0.15 mg and 0.27 mg and 0.24 mg and 0.09 mg and 0.17 mg and 0.12 mg
